Read-outs that look alike come from different tables or passages of the source.
How the values were obtained:
GluN1/GluN2D = GluN1/GluN2D (Rattus norvegicus, UniProt P35439+Q62645); assay: Whole-cell voltage-clamp recordings, HEK cells, GluN1/GluN2D (agonist dependence); type: cell-based; conditions: for Kd: from kON and kOFF
Description: We previously described the actions of the GluN2C/GluN2D-preferring negative allosteric modulator DQP-1105 as dependent on glutamate (but not glycine) binding, in that DQP-1105 affinity increases after GluN1/GluN2D NMDARs bind glutamate.[32] […] The concentration-dependent relaxation is indicative of an agonist-induced increase in potency that leads to re-equilibration of the inhibitor after agonist binding induces an increase in inhibitor affinity. We investigated the glutamate dependence of compound 2i (GluN1/GluN2D, Figure 4; GluN1/GluN2C, Figure S2), DQP-1105 (Figure S1), and compound (S)-2a (DQP-69;[33]Figure S3) using the same protocols.
We preincubated cells with glycine and the inhibitor 2i (DQP-997-74) and compared inhibitor potency during the peak and steady-state current responses to glutamate application. […] To investigate the time course of 2i inhibition, we fitted the relaxation of the current response with a single exponential function. If the current response time course reflects 2i binding, then the reciprocal of τinhibition should be linearly related to its concentration, with the slope equal to kON and intercept equal to kOFF. […] The deactivation of GluN1/GluN2D receptors (5.3 ± 0.2 s) was slowed by the presence of compound 2i when applied at concentrations of 0.1 μM (7.3 ± 0.3 s; p = 0.017) and 0.3 μM (10.5 ± 1.0 s; p = 0.002) but not at 0.03 μM (5.6 ± 0.3 s; p = 0.518; Figure 4E). […] This phenomenon was previously discovered for QNZ-46, a glutamate-dependent GluN2C/2D-selective inhibitor with a different structural core.[42] As proposed in that study, the prolonged deactivation may indicate that 2i slows a conformational change necessary for glutamate unbinding or 2i may need to unbind before glutamate can unbind.
In addition, we evaluated how glutamate dependence affects inhibition of responses to brief agonist applications similar to phasic glutamate release that occurs at synapses. To do so, we preincubated cells expressing GluN1/GluN2D receptors with the inhibitor 2i and then applied trains of five brief pulses of NMDA (which dissociates more rapidly than glutamate) and glycine from a pressurized micropipette to mimic repetitive synaptic transmission (Figure 4F). We measured the peak amplitude and compared the concentration–response curves for the inhibition of the first and last response (Figure 4G). The initial train of pulses in the absence of drug controls for systematic errors such as internalization of receptors.
To further evaluate whether 2i followed the law of mass action, we coapplied different concentrations of 2i with glutamate during the steady-state glutamate and glycine responses of GluN1/GluN2D receptors expressed in HEK cells (Figure 4H). […] We also fitted the onset and offset time course of the inhibition produced by compound 2i with a single exponential function (Figure 4J).
HEK293 cells (HEK, ATCC CRL-1573) were plated on glass coverslips pretreated with 0.1 mg/mL poly-D-lysine and cultured in Dulbecco’s modified Eagle medium (DMEM) plus Glutamax (GIBCO 10569-10) supplemented with 10% fetal bovine serum, 10 U/mL of penicillin, and 10 μg/mL of streptomycin at 37 °C and 5% CO2. The cells were transiently transfected with cDNA encoding rat GluN1, GluN2D, and eGFP at a ratio of 1:1:5 by using the calcium phosphate precipitation method.[48] After 24–48 h following the transfection, the cells were perfused with external recording solution that contained (in mM) 3 KCl, 150 NaCl, 0.01 EDTA, 1.0 CaCl2, 10 HEPES, and 22 D-mannitol (the pH was adjusted to 7.4 with NaOH). The patch electrodes (resistance 3–5 MΩ) were prepared from thin-walled glass micropipettes (TW150F-4, World Precision Instruments, Sarasota, FL) by a dual-stage glass micropipette puller (PC-10, Narishige, Tokyo, Japan) and filled with internal solution containing (in mM) 110 D-gluconate, 110 CsOH, 30 CsCl, 5 HEPES, 4 NaCl, 0.5 CaCl2, 2 MgCl2, 5 BAPTA, 2 NaATP, and 0.3 NaGTP. […]

GluN1-4a/GluN3B = GluN1-4a/GluN3B (Rattus norvegicus, UniProt P35439+Q8VHN2); assay: Off-target, oocytes, GluN1-4a/GluN3B; type: cell-based; conditions: 1 µM compound; 100 µM glycine
Sequence of GluN1-4a/GluN3B (Q8VHN2 25-1002, other chains not shown): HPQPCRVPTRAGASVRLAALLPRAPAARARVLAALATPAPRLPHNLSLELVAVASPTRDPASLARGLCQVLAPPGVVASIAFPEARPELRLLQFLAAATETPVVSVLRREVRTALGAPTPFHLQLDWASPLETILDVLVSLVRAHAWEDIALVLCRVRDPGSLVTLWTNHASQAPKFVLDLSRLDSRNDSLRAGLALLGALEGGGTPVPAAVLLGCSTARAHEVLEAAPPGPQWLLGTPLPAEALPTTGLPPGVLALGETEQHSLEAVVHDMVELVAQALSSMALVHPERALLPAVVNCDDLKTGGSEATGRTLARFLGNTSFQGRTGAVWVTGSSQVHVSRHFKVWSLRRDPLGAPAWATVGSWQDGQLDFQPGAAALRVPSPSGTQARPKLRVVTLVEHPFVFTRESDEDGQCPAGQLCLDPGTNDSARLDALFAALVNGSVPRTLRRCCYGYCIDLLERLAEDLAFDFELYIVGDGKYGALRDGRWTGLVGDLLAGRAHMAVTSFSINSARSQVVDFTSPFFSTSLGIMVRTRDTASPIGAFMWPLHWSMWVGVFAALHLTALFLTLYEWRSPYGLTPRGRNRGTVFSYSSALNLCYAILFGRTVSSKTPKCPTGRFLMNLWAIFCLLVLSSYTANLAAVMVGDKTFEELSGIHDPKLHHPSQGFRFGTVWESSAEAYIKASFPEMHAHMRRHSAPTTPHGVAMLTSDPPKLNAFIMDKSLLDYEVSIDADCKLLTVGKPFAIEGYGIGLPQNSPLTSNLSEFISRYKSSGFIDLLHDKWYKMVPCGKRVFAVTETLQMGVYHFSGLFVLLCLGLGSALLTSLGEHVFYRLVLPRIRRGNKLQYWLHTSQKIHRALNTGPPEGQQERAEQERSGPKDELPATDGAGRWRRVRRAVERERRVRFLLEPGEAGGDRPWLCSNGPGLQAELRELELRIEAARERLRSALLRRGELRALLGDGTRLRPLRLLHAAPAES
Experimental: Analysis of Off-target Actions
Compound (S)-(-)-2i was tested at 1 µM for actions at glycine-activated GluN1/GluN3A (human GluN1-F484A,T518L/GluN3A referred to a GluN1-FA,TL/GluN3A) and rat GluN1-4a/GluN3B in the presence of 0.5 µM CGP-78608. cRNA injection ratios for GluN1/GluN3 were 1:2. Compound (S)-(-)- 2i was also tested for actions at AMPA (rat GluA1, rat GluA2, human GluA3-L531Y), kainate (rat GluK2), nicotinic acetylcholine (rat α7 and α4β2, cRNA ratio 1:1), GABAA (rat α1β2γ2S, cRNA ratio 1:1:1), GABAC (rat ρ1), glycine (rat α1), and purinergic (human P2X) receptors expressed in Xenopus oocytes. cRNA encoding the receptor subunits was synthesized from linear template cDNA using the mMessage mMachine kit (Ambion). Oocytes were injected with 1-5 ng cRNA in a 50 nL volume and incubated in Barth's solution at 15°C for 2-5 days prior to recording. GluK2-expressing oocyte were incubated in 1 mg/ml (10 µM) concanavalin-A for 10 min prior to recording. The cDNAs encoding GABAC and glycine subunits were provided by Dr. D. Weiss (University of Texas Health Science Center at San Antonio). cDNAs encoding nicotinic acetylcholine receptor subunits were provided by Drs. […]
GABA. […] Responses in presence of test compound were expressed as a percent of control. […]

[1] = HEK293, coapplication with glutamate
[2] = HEK293, inhibitor preapplied, linear regression of 1/τinhibition vs concentration

Sequence of GluN1/GluN2D (Q62645 28-1323, other chains not shown): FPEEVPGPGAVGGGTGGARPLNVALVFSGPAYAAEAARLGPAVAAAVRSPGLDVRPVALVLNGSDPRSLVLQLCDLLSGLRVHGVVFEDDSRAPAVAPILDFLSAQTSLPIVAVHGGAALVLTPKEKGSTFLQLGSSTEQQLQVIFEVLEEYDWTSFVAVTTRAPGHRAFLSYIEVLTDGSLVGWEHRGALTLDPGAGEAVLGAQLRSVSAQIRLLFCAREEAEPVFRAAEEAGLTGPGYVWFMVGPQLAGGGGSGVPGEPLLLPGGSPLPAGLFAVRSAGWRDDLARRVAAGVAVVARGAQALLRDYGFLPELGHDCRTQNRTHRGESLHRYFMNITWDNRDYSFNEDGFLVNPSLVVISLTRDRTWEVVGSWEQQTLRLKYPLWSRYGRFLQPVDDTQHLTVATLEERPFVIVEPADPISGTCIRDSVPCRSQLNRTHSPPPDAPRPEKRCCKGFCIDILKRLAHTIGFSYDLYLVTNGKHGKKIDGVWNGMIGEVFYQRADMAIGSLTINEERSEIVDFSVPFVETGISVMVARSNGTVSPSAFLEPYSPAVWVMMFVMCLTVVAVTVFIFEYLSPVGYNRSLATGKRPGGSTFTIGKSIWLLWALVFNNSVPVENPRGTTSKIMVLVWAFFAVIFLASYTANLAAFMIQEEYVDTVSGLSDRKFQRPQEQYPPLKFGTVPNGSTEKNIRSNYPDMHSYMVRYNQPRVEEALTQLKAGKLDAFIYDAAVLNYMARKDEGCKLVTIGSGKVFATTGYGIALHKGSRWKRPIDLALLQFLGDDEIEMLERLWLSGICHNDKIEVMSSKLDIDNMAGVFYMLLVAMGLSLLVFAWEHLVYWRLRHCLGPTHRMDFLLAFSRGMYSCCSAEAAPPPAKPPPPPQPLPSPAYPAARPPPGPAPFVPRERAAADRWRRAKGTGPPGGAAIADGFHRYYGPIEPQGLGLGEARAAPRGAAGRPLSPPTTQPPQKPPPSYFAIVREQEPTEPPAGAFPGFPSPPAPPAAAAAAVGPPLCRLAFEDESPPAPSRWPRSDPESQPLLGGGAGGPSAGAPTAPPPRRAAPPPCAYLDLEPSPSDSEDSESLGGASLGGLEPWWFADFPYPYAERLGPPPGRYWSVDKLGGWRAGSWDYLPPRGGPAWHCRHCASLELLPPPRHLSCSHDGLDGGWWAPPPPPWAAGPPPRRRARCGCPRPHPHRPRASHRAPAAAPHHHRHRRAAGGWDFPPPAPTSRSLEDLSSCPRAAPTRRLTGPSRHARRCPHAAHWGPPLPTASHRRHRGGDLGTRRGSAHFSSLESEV

SMILES	koff (GluN1/GluN2D; [1])	kon (GluN1/GluN2D; [1])	koff (GluN1/GluN2D; [2])	kon (GluN1/GluN2D; [2])	Kd (GluN1/GluN2D; coapplication with glutamate)	IC50 (GluN1/GluN2D; compound coapplied with glutamate during steady-state response, read-out: IC50 steady-state inhibition, coapplication)	IC50 (GluN1/GluN2D; fifth of 5 brief NMDA (500 μM)/glycine (250 μM) pulses at 1 s intervals, read-out: IC50 pulse 5 (95% CI))	IC50 (GluN1/GluN2D; first of 5 brief NMDA (500 μM)/glycine (250 μM) pulses at 1 s intervals, read-out: IC50 pulse 1 (95% CI))	Kd (GluN1/GluN2D; inhibitor preapplied)	IC50 (GluN1/GluN2D; peak current response to glutamate, inhibitor preapplied, read-out: IC50 peak (95% CI))	IC50 (GluN1/GluN2D; steady-state current response to glutamate, inhibitor preapplied, read-out: IC50 steady-state (95% CI))	% control GluN1-4a/GluN3B (GluN1-4a/GluN3B)
O=C(O)CC(F)(F)C(=O)N1N=C(c2c(-c3ccc(Cl)cc3)c3ccccc3[nH]c2=O)CC1c1ccc(Cl)cc1 (stereo not drawn) [2i]	0.05 s⁻¹	210000 M⁻¹ s⁻¹	0.17 s⁻¹	400000 M⁻¹ s⁻¹	240 nM	100 nM	400 nM	750 nM	430 nM	230 nM	80 nM	
O=C(O)CC(F)(F)C(=O)N1N=C(c2c(-c3ccc(Cl)cc3)c3ccccc3[nH]c2=O)C[C@H]1c1ccc(Cl)cc1 [(S)-(−)-2i]												97 ± 1.0%
